Laboratory results as given in PubChem BioAssay AID1963964 (Molecular Pharmacology Branch, DTP, NCI, 2024).

Tested on: 997726-040-R-J2-PDC tumor spheroids, viability
Assay: Anticancer human tumor 997726-040-R-J2-PDC patient-derived squamous cell lung carcinoma cell line growth inhibition [PI3K]
Conditions: spheroids with HUVEC and MSC; for IC50: curve of first compound; for viability, T/C: stronger effect = lower value
Outline: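 Tumor cells were combined with HUVEC and MSCs into spheroids, then dosed with PI3K-inhibitor combinations over half-log ranges capped near clinical Cmax or 10 microM.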

[1] = second compound 0.0316 µM, first compound 0.000316 µM
[2] = second compound 0.0316 µM, first compound 0.001 µM
[3] = second compound 0.0316 µM, first compound 0.00316 µM
[4] = second compound 0.0316 µM, first compound 0.01 µM
[5] = second compound 0.0316 µM, first compound 0.0316 µM
[6] = second compound 0.0316 µM, first compound 0.1 µM
[7] = second compound 0.1 µM, first compound 0.000316 µM
[8] = second compound 0.1 µM, first compound 0.001 µM
[9] = second compound 0.1 µM, first compound 0.00316 µM
[10] = second compound 0.1 µM, first compound 0.01 µM
[11] = second compound 0.1 µM, first compound 0.0316 µM
[12] = second compound 0.1 µM, first compound 0.1 µM
[13] = second compound 0.316 µM, first compound 0.000316 µM
[14] = second compound 0.316 µM, first compound 0.001 µM
[15] = second compound 0.316 µM, first compound 0.00316 µM
[16] = second compound 0.316 µM, first compound 0.01 µM
[17] = second compound 0.316 µM, first compound 0.0316 µM
[18] = second compound 0.316 µM, first compound 0.1 µM
[19] = second compound 1 µM, first compound 0.000316 µM
[20] = second compound 1 µM, first compound 0.001 µM
[21] = second compound 1 µM, first compound 0.00316 µM
[22] = second compound 1 µM, first compound 0.01 µM
[23] = second compound 1 µM, first compound 0.0316 µM
[24] = second compound 1 µM, first compound 0.1 µM
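Also: spheroids exposed to compounds for seven days before readout.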

## Cn1ncnc1[C@H]1c2n[nH]c(=O)c3cc(F)cc(c23)N[C@@H]1c1ccc(F)cc1 + CC(Nc1ccc2c(c1)OCCn1cc(N3C(=O)OCC3C(F)F)nc1-2)C(N)=O
Second compound 0.00316 µM
  IC50: > 100 nM
Second compound 0.01 µM
  IC50: > 100 nM
Second compound 0.0316 µM
  IC50: > 100 nM
Second compound 0.1 µM
  IC50: < 0.316 nM
Second compound 0.316 µM
  IC50: < 0.316 nM
Second compound 1 µM
  IC50: < 0.316 nM
Second compound 0.00316 µM, first compound 0.000316 µM
  viability, T/C: 84.4%
Second compound 0.00316 µM, first compound 0.001 µM
  viability, T/C: 99.1%
Second compound 0.00316 µM, first compound 0.00316 µM
  viability, T/C: 95.7%
Second compound 0.00316 µM, first compound 0.01 µM
  viability, T/C: 87.5%
Second compound 0.00316 µM, first compound 0.0316 µM
  viability, T/C: 99.7%
Second compound 0.00316 µM, first compound 0.1 µM
  viability, T/C: 89.7%
Second compound 0.01 µM, first compound 0.000316 µM
  viability, T/C: 89.6%
Second compound 0.01 µM, first compound 0.001 µM
  viability, T/C: 92.4%
Second compound 0.01 µM, first compound 0.00316 µM
  viability, T/C: 75.9%
Second compound 0.01 µM, first compound 0.01 µM
  viability, T/C: 71.4%
Second compound 0.01 µM, first compound 0.0316 µM
  viability, T/C: 84.3%
Second compound 0.01 µM, first compound 0.1 µM
  viability, T/C: 75.6%
[1]
  viability, T/C: 63.2%
[2]
  viability, T/C: 72.9%
[3]
  viability, T/C: 66.2%
[4]
  viability, T/C: 71.5%
[5]
  viability, T/C: 70.2%
[6]
  viability, T/C: 60.2%
[7]
  viability, T/C: 49.4%
[8]
  viability, T/C: 39.8%
[9]
  viability, T/C: 43.6%
[10]
  viability, T/C: 45.4%
[11]
  viability, T/C: 41.8%
[12]
  viability, T/C: 39%
[13]
  viability, T/C: 31.2%
[14]
  viability, T/C: 36%
[15]
  viability, T/C: 32.4%
[16]
  viability, T/C: 32.4%
[17]
  viability, T/C: 33.4%
[18]
  viability, T/C: 30.9%
[19]
  viability, T/C: 27.5%
[20]
  viability, T/C: 26.7%
[21]
  viability, T/C: 26.6%
[22]
  viability, T/C: 28.9%
[23]
  viability, T/C: 31.1%
[24]
  viability, T/C: 28.8%

## CC(=O)c1c(C)c2cnc(Nc3ccc(N4CCNCC4)cn3)nc2n(C2CCCC2)c1=O + Cc1nc(NC(=O)N2CCCC2C(N)=O)sc1-c1ccnc(C(C)(C)C(F)(F)F)c1
Second compound 0.0316 µM
  IC50: > 100 nM
Second compound 0.1 µM
  IC50: 58.7 nM
Second compound 0.316 µM
  IC50: 19.7 nM
Second compound 1 µM
  IC50: < 0.316 nM
Second compound 3.16 µM
  IC50: < 0.316 nM
Second compound 10 µM
  IC50: < 0.316 nM
[1]
  viability, T/C: 94.4%
[2]
  viability, T/C: 90.6%
[3]
  viability, T/C: 83.3%
[4]
  viability, T/C: 72.9%
[5]
  viability, T/C: 75.5%
[6]
  viability, T/C: 51.9%
[7]
  viability, T/C: 81.5%
[8]
  viability, T/C: 74.8%
[9]
  viability, T/C: 71.9%
[10]
  viability, T/C: 65.2%
[11]
  viability, T/C: 59.5%
[12]
  viability, T/C: 43.1%
[13]
  viability, T/C: 53.4%
[14]
  viability, T/C: 59%
[15]
  viability, T/C: 52.9%
[16]
  viability, T/C: 55.7%
[17]
  viability, T/C: 46.4%
[18]
  viability, T/C: 34.8%
[19]
  viability, T/C: 41.9%
[20]
  viability, T/C: 44.1%
[21]
  viability, T/C: 40.1%
[22]
  viability, T/C: 35.5%
[23]
  viability, T/C: 29.1%
[24]
  viability, T/C: 28.4%
Second compound 3.16 µM, first compound 0.000316 µM
  viability, T/C: 29.6%
Second compound 3.16 µM, first compound 0.001 µM
  viability, T/C: 30.5%
Second compound 3.16 µM, first compound 0.00316 µM
  viability, T/C: 26.2%
Second compound 3.16 µM, first compound 0.01 µM
  viability, T/C: 27.7%
Second compound 3.16 µM, first compound 0.0316 µM
  viability, T/C: 27.2%
Second compound 3.16 µM, first compound 0.1 µM
  viability, T/C: 18.6%
Second compound 10 µM, first compound 0.000316 µM
  viability, T/C: 19.2%
Second compound 10 µM, first compound 0.001 µM
  viability, T/C: 15.7%
Second compound 10 µM, first compound 0.00316 µM
  viability, T/C: 13.4%
Second compound 10 µM, first compound 0.01 µM
  viability, T/C: 14.9%
Second compound 10 µM, first compound 0.0316 µM
  viability, T/C: 11.8%
Second compound 10 µM, first compound 0.1 µM
  viability, T/C: 10.5%
